IC50 data for 20 compounds are collected here from patent US12240862B2, “Inhibitors of peptidylarginine deiminases” (Gilead Sciences, Inc., priority 2020, dated 2025).

In the experiment the target is T1, human PAD4 (Homo sapiens, UniProt Q9UM07).
T1 construct: human PAD4 (NM_012387), A2P663, was PCR amplified; His-SUMO (N, cleaved yes); made in house; host or cells: E. coli BL21(DE3)
T1 sequence (Q9UM07 2-663): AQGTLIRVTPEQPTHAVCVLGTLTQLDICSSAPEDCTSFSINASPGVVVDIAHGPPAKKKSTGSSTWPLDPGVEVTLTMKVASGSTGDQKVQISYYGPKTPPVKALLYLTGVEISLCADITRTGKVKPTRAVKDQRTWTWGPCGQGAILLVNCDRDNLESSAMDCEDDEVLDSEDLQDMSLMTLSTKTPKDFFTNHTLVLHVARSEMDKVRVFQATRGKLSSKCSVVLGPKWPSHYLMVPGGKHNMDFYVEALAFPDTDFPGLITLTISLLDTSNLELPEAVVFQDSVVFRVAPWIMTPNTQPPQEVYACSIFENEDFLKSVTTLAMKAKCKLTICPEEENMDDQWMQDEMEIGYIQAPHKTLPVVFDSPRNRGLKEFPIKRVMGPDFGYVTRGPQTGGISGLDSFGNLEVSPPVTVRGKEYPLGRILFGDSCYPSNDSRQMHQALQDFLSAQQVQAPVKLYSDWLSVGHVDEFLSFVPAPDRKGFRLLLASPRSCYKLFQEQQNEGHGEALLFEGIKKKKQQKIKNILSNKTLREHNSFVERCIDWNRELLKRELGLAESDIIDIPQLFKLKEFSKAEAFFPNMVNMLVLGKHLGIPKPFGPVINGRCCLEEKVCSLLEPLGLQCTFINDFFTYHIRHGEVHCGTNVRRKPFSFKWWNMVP
Description: In vitro PAD4 BAEE biochemical assay. The note with it: human PAD4, BAEE substrate; 5 nM PAD4, 2 mM calcium chloride, 3 mM BAEE; geometric mean of multiple experiments. The procedure, abridged: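 Ammonia generated from BAEE serves as the readout, measured by o-phthalaldehyde after EDTA termination. Final conditions: 5 nM human PAD4 (SUMO tag cleaved), 2 mM CaCl2, 3 mM BAEE, pH 7.6 MOPS buffer, 25 °C for 2 h following a 30-min compound preincubation.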
What is called IC50 is the concentration that gives 50% inhibition. In the case of `COc1cc(C(=O)N2[C@H]3CC[C@@H]2[C@H](N)C3)cc2nc(-c3cc4ccc([C@@H](C)NC(=O)C5(COC(F)(F)F)CC5)nc4n3CC3CC3)c(C)n12` [Example 138, ~{N}-[(1~{R})-1-[2-[7-[(1~{R},2~{R},4~{S})-2-amino-7-azabicyclo[2.2.1]heptane-7-carbonyl]-5-methoxy-3-methylimidazo [1,2-a]pyridin-2-yl]-1-(cyclopropylmethyl)pyrrolo [2,3-b]pyridin-6-yl]ethyl]-1-(trifluoromethoxymethyl) cyclopropane-1-carboxamide], the half-inhibitory concentration (IC50) worked out at 328 nM.

As for “(2~{S})-2-[2-[7-[(3~{R})-3- aminopiperidine-1- carbonyl]-5-methoxy-3- methylimidazo[1,2- a]pyridin-2-yl]-1- (cyclopropylmethyl)pyrrolo [2,3-b]pyridin-6-yl] oxy-~{N}- methylpropanamide [Example 630]”, the IC50 was found to be 9400 nM. With `COc1cc(C(=O)N2[C@H]3CC[C@@H]2[C@H](N)C3)cc2nc(-c3cc4ccc(N5Cc6ccccc6CS5(=O)=O)nc4n3CC3CC3)c(C)n12` [Example 461, [(1~{R},2~{R},4~{S})-2-amino-7-azabicyclo [2.2.1]heptan-7-yl]-[2-[1-(cyclopropylmethyl)-6-(2,2-dioxo-1,4-dihydro-2$l^6,3-benzothiazin-3-yl)pyrrolo[2,3-b]pyridin-2-yl]-5-methoxy-3-methylimidazo[1,2-a]pyridin-7-yl]methanone], the IC50 stood at 294 nM. With `CCC1CC[C@@H]2CCN(C(=O)c3cc(OC)n4c(C)c(-c5cc6ccc([C@@H](C)NC(=O)C78CC(F)(C7)C8)nc6n5CC5CC5)nc4c3)C[C@@H]2N1` (some centres unmarked) [Example 12, ~{N}-[(1~{R})-1-[2-[7-[(4~{a}~{R}, 8~{a}~{R})-2-ethyl-2,3,4,4~{a}, 5,6,8,8~{a}-octahydro-1~{H}-1,7-naphthyridine-7-carbonyl]-5-methoxy-3-methylimidazo[1,2-a]pyridin-2-yl]-1-(cyclopropylmethyl)pyrrolo[2,3-b]pyridin-6-yl]ethyl]-3-fluorobicyclo[1.1.1] pentane-1-carboxamide] the figure was 29100 nM. With `CCN(c1ccc2cc(-c3nc4cc(C(=O)N5[C@H]6CC[C@@H]5[C@H](N)C6)cc(OC)n4c3C)n(CC3CC3)c2n1)S(C)(=O)=O` [Example 475, ~{N}-[2-[7-[(1~{R},2~{R}, 4~{S})-2-amino-7-azabicyclo[2.2.1]heptane-7-carbonyl]-5-methoxy-3-methylimidazo[1,2-a]pyridin-2-yl]-1-(cyclopropylmethyl)pyrrolo [2,3-b]pyridin-6-yl]-~{N}-ethylmethanesulfonamide], the IC50 worked out at 75.1 nM.

`COc1cc(C(=O)N2C[C@H](N)CC[C@@H]2C)cc2nc(-c3cc4ccc(N(C(F)F)S(C)(=O)=O)nc4n3CC3CC3)c(C)n12` [Example 412, ~{N}-[2-[7-[(2~{S},5~{R})-5-amino-2-methylpiperidine-1-carbonyl]-5-methoxy-3-methylimidazo [1,2-a]pyridin-2-yl]-1-(cyclopropylmethyl)pyrrolo-[2,3b]pyridin-6-yl]-~{N}-(difluoromethyl) methanesulfonamide]: the IC50 stood at 156 nM. With `COc1cc(C(=O)N2CCC[C@@H](N)C2)cc2nc(-c3cc4ccc(-c5cccnc5N5CCOCC5)nc4n3CC3CC3)c(C)n12` [Example 606, [(3~{R})-3-aminopiperidin-1-yl]-[2-[1-(cyclopropylmethyl)-6-(2-morpholin-4-ylpyridin-3-yl)pyrrolo[2,3-b]pyridin-2-yl]-5-methoxy-3-methylimidazo[1,2-a]pyridin-7-yl]methanone] the figure was 373 nM; with `COc1cc(C(=O)N2[C@H]3CC[C@@H]2[C@H](N)C3)cc2nc(-c3cc4ccc([C@@H](C)NC(=O)N[C@H](C)c5cccnc5)nc4n3CC3CC3)c(C3CC3)n12` [Example 218, 1-[(1~{R})-1-[2-[7-[(1~{R},2~{R},4~{S})-2-amino-7-azabicyclo[2.2.1]heptane-7-carbonyl]-3-cyclopropyl-5-methoxyimidazo [1,2-a]pyridin-2-yl]-1-(cyclopropylmethyl)pyrrolo [2,3-b]pyridin-6-yl]ethyl]-3-[(1~{R})-1-pyridin-3-ylethyl]urea], 55.5 nM. For the compound `COc1cc(C(=O)N2[C@H]3CC[C@@H]2[C@H](N)C3)cc2nc(-c3cc4ccc(N5c6ccccc6CCS5(=O)=O)nc4n3CC3CC3)c(C)n12` [Example 468, [(1~{R},2~{R},4~{S})-2-amino-7-azabicyclo [2.2.1]heptan-7-yl]-[2-[1-(cyclopropylmethyl)-6-(2,2-dioxo-3,4-dihydro-2$l^6,1-benzothiazin-1-yl)pyrrolo[2,3-b]pyridin-2-yl]-5-methoxy-3-methylimidazo[1,2-a]pyridin-7-yl]methanone], the concentration for half-maximal inhibition (IC50) was 238 nM. For the compound `COc1cc(C(=O)N2[C@H]3CC[C@@H]2[C@H](N)C3)cc2nc(-c3cc4ccc([C@@H](C)NC(=O)C5(C)CCOCC5)nc4n3CC3CC3)c(C)n12` [Example 135, ~{N}-[(1~{R})-1-[2-[7-[(1~{R},2~{R},4~{S})-2-amino-7-azabicyclo[2.2.1]heptane-7-carbonyl]-5-methoxy-3-methylimidazo [1,2-a]pyridin-2-yl]-1-(cyclopropylmethyl)pyrrolo [2,3-b]pyridin-6-yl]ethyl]-4-methyloxane-4-carboxamide], the half-inhibitory concentration (IC50) is 106 nM. With `COc1cc(C(=O)N2[C@H]3CC[C@@H]2[C@H](N)C3)cc2nc(-c3cc4ccc([C@@H](C)NC(=O)N5CC(F)(F)C(F)(F)C5)nc4n3CC3CC3)c(C)n12` [Example 208, ~{N}-[(1~{R})-1-[2-[7-[(1~{R},2~{R},4~{S})-2-amino-7-azabicyclo[2.2.1]heptane-7-carbonyl]-5-methoxy-3-methylimidazo [1,2-a]pyridin-2-yl]-1-(cyclopropylmethyl)pyrrolo [2,3-b]pyridin-6-yl]ethyl]-3,3,4,4-tetrafluoropyrrolidine-1-carboxamide] the figure was 111 nM; with `CCc1ccc2cc(-c3nc4cc(C(=O)N5CC[C@H]6OCCN[C@H]6C5)cc(OC)n4c3C)n(CC3CC3)c2n1` [Example 591, [(4~{a}~{S},8~{a}~{R})-2,3,4,4~{a},5,7,8,8~{a}-octahydropyrido[4,3-b] [1,4]oxazin-6-yl]-[2-[1-(cyclopropylmethyl)-6-ethylpyrrolo[2,3-b]pyridin-2-yl]-5-methoxy-3-methylimidazo[1,2-a]pyridin-7-yl]methanone], 936 nM; with `COc1cc(C(=O)N2CCC[C@@H](N)C2)cc2nc(-c3cc4ccc(CCC(=O)N(C)C)nc4n3CC3CC3)c(C)n12` [Example 532, 3-[2-[7-[(3~{R})-3-aminopiperidine-1-carbonyl]-5-methoxy-3-methylimidazo[1,2-a]pyridin-2-yl]-1-(cyclopropylmethyl)pyrrolo[2,3-b]pyridin-6-yl]-~{N},~{N}-dimethylpropanamide], 1480 nM. With `COc1cc(C(=O)N2[C@H]3CC[C@@H]2[C@H](N)C3)cc2nc(-c3cc4ccc([C@@H](C)NC(=O)N(C)Cc5cccc(=O)[nH]5)nc4n3CC3CC3)c(C)n12` [Example 220, 3-[(1~{R})-1-[2-[7-[(1~{R},2~{R},4~{S})-2-amino-7-azabicyclo[2.2.1]heptane-7-carbonyl]-5-methoxy-3-methylimidazo [1,2-a]pyridin-2-yl]-1-(cyclopropylmethyl)pyrrolo [2,3-b]pyridin-6-yl]ethyl]-1-methyl-1-[(6-oxo-1~{H}-pyridin-2-yl)methyl]urea] the figure was 79.1 nM; with `COc1cc(C(=O)N[C@H]2CNC[C@@H](C)C2)cc2nc(-c3cc4ccc(N(C(F)F)S(C)(=O)=O)nc4n3CC3CC3)c(C)n12` [Example 317, 2-[1-(cyclopropylmethyl)-6-[difluoromethyl (methylsulfonyl)amino]pyrrolo[2,3-b]pyridin-2-yl]-5-methoxy-3-methyl-~{N}-[(3~{R},5~{S})-5-methylpiperidin-3-yl] imidazo[1,2-a]pyridine-7-carboxamide], 813 nM. `COc1cc(C(=O)N2[C@H]3CC[C@@H]2[C@H](N)C3)cc2nc(-c3cc4ccc(C(C)C(N)=O)nc4n3CC3CC3)c(C)n12` (some centres unmarked) [Example 545]: the concentration for half-maximal inhibition (IC50) came to 81.8 nM.

With `COc1cc(C(=O)N2[C@H]3CC[C@@H]2[C@H](N)C3)cc2nc(-c3cc4ccc([C@@H](C)NC(=O)[C@@H](C)O)nc4n3CC3CC3)c(C)n12` [Example 91, (2~{R})-~{N}-[(1~{R})-1-[2-[7-[(1~{R},2~{R},4~{S})-2-amino-7-azabicyclo[2.2.1]heptane-7-carbonyl]-5-methoxy-3-methylimidazo [1,2-a]pyridin-2-yl]-1-(cyclopropylmethyl)pyrrolo [2,3-b]pyridin-6-yl]ethyl]-2-hydroxypropanamide], the concentration for half-maximal inhibition (IC50) stood at 43 nM. Turning to `COc1cc(C(=O)N2[C@H]3CC[C@@H]2[C@H](N)C3)cc2nc(-c3cc4ccc(N5CCN(Cc6cccnc6)CCS5(=O)=O)nc4n3CC3CC3)c(C)n12` [Example 442, [(1~{R},2~{R},4~{S})-2-amino-7-azabicyclo [2.2.1]heptan-7-yl]-[2-[1-(cyclopropylmethyl)-6-[1,1-dioxo-5-(pyridin-3-ylmethyl)-1,2,5-thiadiazepan-2-yl]pyrrolo [2,3-b]pyridin-2-yl]-5-methoxy-3-methylimidazo [1,2-a]pyridin-7-yl] methanone], the IC50 came to 40.9 nM.

`COc1cc(C(=O)N2[C@H]3CC[C@@H]2[C@H](N)C3)cc2nc(-c3cc4ccc([C@@H](C)NC(=O)c5cnn(C(F)F)c5)nc4n3CC3CC3)c(C)n12` [Example 107]: the IC50 amounted to 44.3 nM. `CCC1C(N)C2CCC1N2C(=O)c1cc(OC)n2c(C)c(-c3cc4ccc(N(C(F)F)S(C)(=O)=O)nc4n3CC3CC3)nc2c1` (single isomer, unassigned) [Example 346]: the IC50 was found to be 2130 nM.
